Assays:
[1] = Viscosity of the liquid epoxy resin; format: physicochemical; details: epoxy resin as obtained
Description: In a flask equipped with a thermometer, a dropping funnel, a condenser tube, and a stirrer, while being purged with nitrogen gas, 43 g of 2,4,4′-trihydroxybiphenyl, 295 g of epichlorohydrin, and 103 g of n-butanol were charged and dissolved. After the temperature was raised to 40° C., 53 g of a 48% by mass sodium hydroxide aqueous solution was added over 8 hours. The temperature was then further raised to 50° C., and the mixture was allowed to react for further 1 hour. After the completion of the reaction, 83 g of water was added, the mixture was allowed to stand, and then the lower layer was disposed. After that, unreacted epichlorohydrin was removed by distillation at 150° C. under reduced pressure. To the obtained crude epoxy resin, 118 g of methyl isobutyl ketone was added to dissolve the epoxy resin. To the solution, 67 g of a 10% by mass sodium hydroxide aqueous solution was further added, the mixture was allowed to react at 80° C. for 2 hours, and then washing with water was repeated three times until the pH of the washing liquid became neutral. Next, the system was dehydrated by azeotropic distillation, and subjected to microfiltration, followed by removing the solvent by distillation under reduced pressure, whereby 63 g of 2,4,4′-triglycidyloxybiphenyl (A-1) which was the target epoxy resin was obtained. […]

[2] = Melt viscosity at 150° C. (ASTM D4287, ICI viscometer method); format: physicochemical; details: measurement temperature 150° C.
Description: 1) Melt viscosity at 150° C.: measured by the following apparatus according to ASTM D4287.
Apparatus name: MODEL CV-1S manufactured by Codex

Structure (SMILES)	viscosity of liquid form [1] [Pa-s]	melt viscosity [2] [dPa·s]
c1cc(-c2ccc(OCC3CO3)cc2OCC2CO2)ccc1OCC1CO1 (stereo not shown) [Example A-1, 2,4,4′-triglycidyloxybiphenyl]	943	0.14
c1cc(-c2cc(OCC3CO3)cc(OCC3CO3)c2)ccc1OCC1CO1 (stereo not shown) [Example A-2, 3,4′,5-triglycidyloxybiphenyl]		0.27
c1c(OCC2CO2)cc(-c2cc(OCC3CO3)cc(OCC3CO3)c2)cc1OCC1CO1 (stereo not shown) [Example A-3, 3,3′,5,5′-tetraglycidyloxybiphenyl]		0.57

From US20170158807A1, “EPOXY RESIN COMPOSITION FOR ELECTRONIC MATERIAL, CURED PRODUCT THEREOF AND ELECTRONIC MEMBER” (DIC CORPORATION, priority 2014, published 2017)
